{
  "source": "patent US20180078561A1",
  "about": "(LAM Therapeutics, Inc., priority 2015, published 2018)",
  "key": {"PIKfyve": {"target": "T1, PIKfyve (Homo sapiens, UniProt Q9Y2I7)", "T1 construct": "purchased DiscoveRx, Fremont, Calif", "T1 sequence (Q9Y2I7 whole entry)": "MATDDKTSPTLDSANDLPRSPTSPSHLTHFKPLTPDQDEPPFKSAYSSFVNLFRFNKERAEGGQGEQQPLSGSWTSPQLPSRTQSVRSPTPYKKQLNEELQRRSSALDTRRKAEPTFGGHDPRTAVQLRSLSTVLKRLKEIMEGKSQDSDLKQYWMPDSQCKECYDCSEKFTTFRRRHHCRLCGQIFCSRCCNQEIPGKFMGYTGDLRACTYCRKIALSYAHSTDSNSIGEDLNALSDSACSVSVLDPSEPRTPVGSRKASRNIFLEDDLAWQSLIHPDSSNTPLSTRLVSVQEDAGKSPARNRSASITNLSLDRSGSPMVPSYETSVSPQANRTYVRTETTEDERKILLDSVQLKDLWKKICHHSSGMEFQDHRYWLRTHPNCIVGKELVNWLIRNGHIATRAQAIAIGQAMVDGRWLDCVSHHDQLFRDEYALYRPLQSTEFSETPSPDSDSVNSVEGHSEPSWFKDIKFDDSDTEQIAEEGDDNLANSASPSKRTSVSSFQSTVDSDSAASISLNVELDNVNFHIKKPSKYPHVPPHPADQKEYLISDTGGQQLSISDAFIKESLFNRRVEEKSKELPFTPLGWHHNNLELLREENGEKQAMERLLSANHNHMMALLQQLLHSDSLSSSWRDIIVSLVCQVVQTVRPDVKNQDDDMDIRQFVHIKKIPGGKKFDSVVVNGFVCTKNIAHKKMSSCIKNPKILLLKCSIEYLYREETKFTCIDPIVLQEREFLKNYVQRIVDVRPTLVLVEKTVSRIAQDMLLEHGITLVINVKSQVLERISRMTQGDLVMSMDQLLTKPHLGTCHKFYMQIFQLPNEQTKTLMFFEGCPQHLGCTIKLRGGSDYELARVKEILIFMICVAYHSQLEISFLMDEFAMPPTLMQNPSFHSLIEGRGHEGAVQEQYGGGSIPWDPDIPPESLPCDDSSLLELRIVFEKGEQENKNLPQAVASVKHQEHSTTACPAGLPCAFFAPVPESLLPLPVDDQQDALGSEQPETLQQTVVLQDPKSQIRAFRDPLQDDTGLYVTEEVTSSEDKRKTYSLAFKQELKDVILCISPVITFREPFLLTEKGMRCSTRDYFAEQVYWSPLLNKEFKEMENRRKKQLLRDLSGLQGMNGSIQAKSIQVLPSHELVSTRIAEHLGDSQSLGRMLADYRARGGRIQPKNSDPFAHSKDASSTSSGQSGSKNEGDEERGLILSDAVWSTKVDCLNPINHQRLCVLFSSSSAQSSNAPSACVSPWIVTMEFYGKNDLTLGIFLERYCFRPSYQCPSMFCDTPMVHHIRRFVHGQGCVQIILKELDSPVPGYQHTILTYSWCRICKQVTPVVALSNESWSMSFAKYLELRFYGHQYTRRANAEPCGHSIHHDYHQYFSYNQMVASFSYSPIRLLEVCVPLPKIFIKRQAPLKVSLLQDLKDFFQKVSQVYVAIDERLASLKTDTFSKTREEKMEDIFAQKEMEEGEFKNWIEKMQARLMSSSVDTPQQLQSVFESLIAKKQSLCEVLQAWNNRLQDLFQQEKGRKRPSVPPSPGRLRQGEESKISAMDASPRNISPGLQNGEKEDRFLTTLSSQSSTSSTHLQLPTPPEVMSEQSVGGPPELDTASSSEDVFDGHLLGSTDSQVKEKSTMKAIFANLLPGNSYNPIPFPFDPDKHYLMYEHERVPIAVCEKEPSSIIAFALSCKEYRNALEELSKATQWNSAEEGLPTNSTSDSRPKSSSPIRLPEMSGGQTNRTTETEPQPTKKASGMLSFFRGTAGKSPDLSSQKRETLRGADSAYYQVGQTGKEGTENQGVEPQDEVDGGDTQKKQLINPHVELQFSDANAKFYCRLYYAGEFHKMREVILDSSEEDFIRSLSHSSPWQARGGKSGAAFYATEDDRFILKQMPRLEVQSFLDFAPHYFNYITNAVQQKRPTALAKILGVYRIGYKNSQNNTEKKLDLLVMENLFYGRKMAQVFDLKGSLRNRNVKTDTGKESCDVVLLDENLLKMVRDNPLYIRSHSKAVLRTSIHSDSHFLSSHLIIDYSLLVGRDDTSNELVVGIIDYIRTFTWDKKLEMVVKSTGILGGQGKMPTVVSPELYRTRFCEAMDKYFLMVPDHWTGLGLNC", "test": "dissociation constant (Kd) study", "type": "binding", "conditions": "0.05-3000 nM, duplicate", "protocol": "A dissociation constant (Kd) study was performed using the 3 compounds at increasing concentrations (0.05-3000 nM) against PIKfyve."}, "[1]": {"test": "human plasma profile of apilimod and metabolites", "type": "in vivo", "conditions": "oral 105 mg doses of apilimod free base, given 10 hr apart"}, "WSU-DLCL2 cells": {"tested_on": "WSU-DLCL2 cells", "test": "anti-proliferative activity normalized to apilimod (plasma concentration factors)", "type": "cell-based, Human", "conditions": "data from WSU-DLCL2 cells"}, "cancer cell line": {"tested_on": "cancer cell line", "test": "vacuolization of cells", "type": "cell-based", "conditions": "for vacuolation in cells: at concentrations comparable to apilimod", "text": "PIKfyve is associated with the cytosolic leaflet of early endosomes and its activity is required for endomembrane homeostasis, endolysosomal function and proper retrograde transport from the endosome to the trans-Golgi network. Introduction of a kinase dead mutant into cells induces a swollen vacuole phenotype that can be rescued by the injection of PI(3,5)P2. Inhibition of PIKfyve by pharmacological methods as well as RNAi also produces swollen vacuoles and disruption of endomembrane dynamics.\nIntroduction of a kinase dead mutant into cells induces a swollen vacuole phenotype that can be rescued by the injection of PI(3,5)P2. Inhibition of PIKfyve by pharmacological methods as well as RNAi also produces swollen vacuoles and disruption of endomembrane dynamics."}, "plasma protein binding [2]": {"test": "plasma protein binding", "type": "in vitro ADME", "conditions": "human plasma proteins"}, "plasma protein binding [3]": {"test": "plasma protein binding", "type": "in vitro ADME", "conditions": "rat plasma proteins"}, "plasma protein binding [4]": {"test": "plasma protein binding", "type": "in vitro ADME", "conditions": "dog plasma proteins"}, "[5]": {"tested_on": "diffuse large B cell lymphoma cells", "test": "Apotox-Glo Triplex assay", "type": "cell-based", "conditions": "48 hours after addition", "protocol": "Apoptosis was quantified and distinguished from necrosis using the Apotox-Glo Triplex assay (Promega, Inc.) according to the manufacturer's instructions. In this assay, viability, apoptosis, and necrosis are assessed simultaneously using three different markers (GF-AFC, Caspase-3/7, and bis-AAF-R110, respectively)."}, "Normal lung fibroblasts": {"tested_on": "Normal lung fibroblasts", "test": "cytotoxicity on normal cells", "type": "cell-based", "conditions": "concentrations as high as 10 micromolar", "text": "(§1) 35 cell lines were identified as sensitive to apilimod-induced cytotoxicity."}, "H4": {"tested_on": "H4", "test": "cell viability (CellTiterGlo), apilimod sensitivity", "type": "cell-based", "conditions": "Homo sapiens, Human neuroglioma", "text": "as §1"}, "[6]": {"conditions": "for Apilimod Ave. Plasma Conc.: Day 7; for sustained blood concentration of apilimod: measured at 24 h"}, "THP-1": {"tested_on": "THP-1", "conditions": "WO 2006/128129; cited from earlier work"}, "Yulac614 melanoma cells": {"tested_on": "Yulac614 melanoma cells", "test": "drug combination screen and validation, cell viability", "procedure": "Yulac614 (resistant to vemurafenib, see Choi et al. 2014) cells were used to conduct drug combination studies to identify synergistic drug pairs. A library of 500 unapproved drugs was used to perform drug screening in the presence or absence of vemurafenib (at IC20=6 μM).\n30 nL of library drug (at 1000× concentration) was spotted into appropriate wells of a 384 black walled plate (Corning #3712). Duplicate drug-spotted plates were prepared and to them were added Yulac614 cells which were pre-treated with either DMSO (0.01% final) or vemurafenib (6 μM final). The Yulac614 cells were grown in OptiMEM (Life Technologies) containing 5% FBS (Sigma Aldrich F2442-500 mL, Lot 12D370) Penicillin/Streptomycin (100×) (CellGro Ref 30-002). […]\nPlates were incubated for 72 h at 37° C. under an atmosphere of 5% CO2 in a humidified incubator. Cell viability was determined with CellTiter-Glo® luminescence assay (Promega) as per the manufacturer's instructions. Viability was expressed as a percentage of control (DMSO) cells. […]\n50 uL of the 10 point drug dilution series (at 2× concentration) was added to the cells. […] 72 hours after compound addition relative cell viability was determined by CellTiter-Glo® luminescence assay (Promega) as per the manufacturer's instructions, and values were expressed as a percentage relative to vehicle (DMSO) treated control cells (set to 100%)."}, "Jurkat": {"tested_on": "Jurkat", "conditions": "WO 2006/128129; cited from earlier work"}, "[7]": {"tested_on": "122 human cancer cell lines", "test": "cancer cell line screen for sensitivity to apilimod", "type": "cell-based", "conditions": "sensitive if IC50 less than 500 nM", "text": "as §1\nThe most sensitive of those tested were non-Hodgkin's Lymphoma (NHL) cell lines. […] NHL represents a diverse group of hematopoietic malignancies that vary in severity, with subtypes ranging from slow growing to aggressive. Subtypes of NHL include diffuse large B cell lymphoma (DLBCL), Burkitt's lymphoma, mantle lymphoma, and follicular B cell lymphoma. DLBCL is divided into two subtypes, GCB and ABC, based on gene expression and cell of origin. The GCB are germinal center B cell type, arising from normal germinal center B cells, and the ABC are activated B cell type, arising from post-germinal center B cells in the process of differentiating into plasma cells."}, "[8]": {"tested_on": "TRI-AML102 (TSC2 null AML)", "test": "10-point dose response, cell viability (CellTiter-Glo)", "type": "cell-based", "conditions": "Homo sapiens; cell type AML (head: AML TSC2 +/− p53 −/−); 72 h; average of two experiments", "source_text": "(§2) (2) ELT3-EV and ELT3-TSC2 lines were established from the ELT3 rat tumor cell line. […] To develop an isogenic pair of cells ELT3 cells were infected with a retrovirus vector encoding the hygromycin antibiotic resistance gene (ELT3-EV) or the same retrovirus vector also encoding TSC2 (ELT3-TSC2). The ELT3-EV and ELT3-TSC2 line were then established by hygromycin selection. […] The cells were infected with amphotropic retrovirus LXSN16E6E7 that encodes the HPV16 E6 and E7 open reading frames and neomycin resistance cassette. Cells were expanded and neomycin-selected. Individual clones were isolated and frozen down. The coding sequence for the human Telomerase gene (hTERT) with hygromycin resistance cassette (pLXSN hTERT-hyg plasmid) was stably expressed into a TSC2^−/− confirmed E6E7 AML clone using Fugene6 transfection reagent (Roche Applied Science, Indianapolis, Ind.). TRI-AML102 was generated by stable incorporation of a control zeomycin selection plasmid (pcDNA3.1-zeo), while TRI-AML103 expresses the human TSC2 cDNA pcDNA3.1-zeo plasmid."}, "U937": {"tested_on": "U937", "conditions": "WO 2006/128129; cited from earlier work"}, "H4 neuroglioma cell line": {"tested_on": "H4 neuroglioma cell line", "test": "Cyto-ID Autophagy detection", "type": "cell-based, Human", "conditions": "72 hours of treatment", "text": "Autophagy was quantified using the Cyto-ID Autophagy detection kit (Enzo) according to manufacturer's directions."}, "SUDHL-4 cells": {"tested_on": "SUDHL-4 cells", "test": "drug library screen with and without apilimod, cell viability", "type": "cell-based", "conditions": "Homo sapiens, SU-DHL-4", "text": "A manually curated library of 93 drugs including both FDA approved and unapproved drugs was used in the screen.\nIbrutinib is an FDA-approved drug targeting B-cell malignancies and indicated for monotherapy in treating mantle cell lymphoma and chronic lymphocytic leukemia. It is also known as PCI-32765 and marketed under the trade name Imbruvica™. […] BTK is a key mediator of at least three critical B-cell pro-survival mechanisms occurring in parallel-regulation of apoptosis, cell adhesion and cell migration and homing."}, "(TSC2−/−, p53−/−) MEF": {"tested_on": "(TSC2−/−, p53−/−) MEF", "test": "10-point dose response, cell viability (CellTiter-Glo)", "type": "cell-based", "conditions": "Mus musculus; cell type MEF TSC2 −/− p53 −/−; 72 h; average of two experiments", "source_text": "as §2"}, "[9]": {"tested_on": "peripheral blood mononuclear cells", "conditions": "Wada et al., Blood 109, 2007; cited from earlier work"}, "HELA": {"tested_on": "HELA", "conditions": "WO 2006/128129; cited from earlier work"}, "MEF-EV (TSC2−/− MEF)": {"tested_on": "MEF-EV (TSC2−/− MEF)", "test": "10-point dose response, cell viability (CellTiter-Glo)", "type": "cell-based", "conditions": "Mus musculus; cell type MEF TSC2 −/− (MEF-EV); 72 h; average of two experiments", "text": "TSC2 null cells have constitutively active mTOR. Briefly, MEF cells derived from TSC2−/− knockout mouse embryos (Onda et al., J. Clin. Invest. 104(6):687-95, 1999) were infected with a retrovirus vector encoding the hygromycin antibiotic resistance gene (MEF-EV) or the same retrovirus vector also encoding TSC2 (MEF-TSC2). The MEF-EV and MEF-TSC2 line were then established by hygromycin selection.\nSee e.g., Zhang et al. J. Clin. Invest. 112, 1223-33, 2003. (2) ELT3-EV and ELT3-TSC2 lines were established from the ELT3 rat tumor cell line. The ELT3 line is an established rat tumor model for LAM/TSC. See e.g., Howe et al., Am. J. Path. 146, 1568-79, 1995. These cells harbor an inactivating mutation in TSC2, which leads to constitutive activation of the mTOR pathway. To develop an isogenic pair of cells ELT3 cells were infected with a retrovirus vector encoding the hygromycin antibiotic resistance gene (ELT3-EV) or the same retrovirus vector also encoding TSC2 (ELT3-TSC2). The ELT3-EV and ELT3-TSC2 line were then established by hygromycin selection. […] The cells were infected with amphotropic retrovirus LXSN16E6E7 that encodes the HPV16 E6 and E7 open reading frames and neomycin resistance cassette. […]\nIC50 values were then calculated from the dose response curves using XLFIT (IDBS)."}, "ELT3-EV": {"tested_on": "ELT3-EV", "test": "10-point dose response, cell viability (CellTiter-Glo)", "type": "cell-based", "conditions": "Rattus norvegicus; cell type ELT3 (ELT3-EV); 72 h; average of two experiments; read-out: IC50 TSC2 −/−", "source_text": "as §2"}},
  "note": "pIC50, pKd: −log10 of the molar value. “Also recorded” adds a separate entry of the source. Read-outs that look alike come from different tables or passages of the source.",
  "data": [
    {"compound": "Cc1cccc(/C=N/Nc2cc(N3CCOCC3)nc(OCC(O)c3ccccn3)n2)c1", "note": "(stereo not shown) [STA-5908]", "values": [
      {"measurement": "pKd", "setting": "PIKfyve", "value": 10.05},
      {"measurement": "mean Cmax relative to apilimod", "setting": "[1]", "value": "somewhat less than half"},
      {"measurement": "plasma concentration factor (for Apilimod Equivalent Concentrations)", "setting": "WSU-DLCL2 cells", "value": 0.68},
      {"measurement": "vacuolation in cells", "setting": "cancer cell line", "value": "cause vacuolation in cells at comparable concentrations"}
    ]},
    {"compound": "Cc1cccc(/C=N/Nc2cc(N3CCOCC3)nc(OCCc3cccc[n+]3[O-])n2)c1", "note": "[STA-5944]", "values": [
      {"measurement": "pKd", "setting": "PIKfyve", "value": 10.21},
      {"measurement": "mean Cmax relative to apilimod", "setting": "[1]", "value": "somewhat less than half"},
      {"measurement": "plasma concentration factor (for Apilimod Equivalent Concentrations)", "setting": "WSU-DLCL2 cells", "value": 0.52},
      {"measurement": "vacuolation in cells", "setting": "cancer cell line", "value": "cause vacuolation in cells at comparable concentrations"}
    ]},
    {"compound": "Cc1cccc(/C=N/Nc2cc(N3CCOCC3)nc(OCC(O)c3cccc[n+]3[O-])n2)c1", "note": "(stereo not shown) [STA-6048]", "values": [
      {"measurement": "pKd", "setting": "PIKfyve", "value": 10.06},
      {"measurement": "plasma concentration factor (for Apilimod Equivalent Concentrations)", "setting": "WSU-DLCL2 cells", "value": 0.26},
      {"measurement": "vacuolation in cells", "setting": "cancer cell line", "value": "cause vacuolation in cells at comparable concentrations"}
    ]},
    {"compound": "Cc1cccc(/C=N/Nc2cc(N3CCOCC3)nc(OCCc3ccccn3)n2)c1", "note": "[apilimod free base]", "values": [
      {"measurement": "fraction unbound", "setting": "plasma protein binding [2]", "value": "< 0.01"},
      {"measurement": "fraction unbound", "setting": "plasma protein binding [3]", "value": "< 0.01"},
      {"measurement": "fraction unbound", "setting": "plasma protein binding [4]", "value": "< 0.01"}
    ]},
    {"compound": "Cc1cccc(/C=N/Nc2cc(N3CCOCC3)nc(OCCc3ccccn3)n2)c1", "note": "[apilimod]", "values": [
      {"measurement": "apoptosis (Caspase-3/7 marker)", "setting": "[5]", "value": "increased apoptosis"},
      {"measurement": "apilimod-induced cytotoxicity", "setting": "Normal lung fibroblasts", "value": "not cytotoxic; also recorded: insensitive"},
      {"measurement": "pIC50", "setting": "H4", "value": "6.52 to 6.60"},
      {"measurement": "Apilimod Ave. Plasma Conc.", "setting": "[6]; Group 3: S.C. pump ~15 mg/kg/d (DRW) + I.P. 30 mg/kg (MC)", "value": 0.682, "unit": "µM"},
      {"measurement": "Apilimod Ave. Plasma Conc.", "setting": "[6]; Group 7: S.C. pump ~15 mg/kg/d (DRW) + I.P. 30 mg/kg (DRD)", "value": 0.613, "unit": "µM"},
      {"measurement": "Apilimod Ave. Plasma Conc.", "setting": "[6]; Group 8: S.C. pump ~30 mg/kg/d (DRW) + I.P. 30 mg/kg (DRD)", "value": 1.76, "unit": "µM"},
      {"measurement": "Apilimod Ave. Plasma Conc.", "setting": "[6]; Group 9: S.C. pump ~15 mg/kg/d (DRW) only", "value": 0.755, "unit": "µM"},
      {"measurement": "Apilimod Ave. Plasma Conc.", "setting": "[6]; Group 10: S.C. pump ~30 mg/kg/d (DRW) only", "value": 1.87, "unit": "µM"},
      {"measurement": "sustained blood concentration of apilimod", "setting": "[6]; S.C. osmotic mini-pump 15 mg/kg/day (bis-mesylate salt)", "value": "> 0.5", "unit": "µM"},
      {"measurement": "sustained blood concentration of apilimod", "setting": "[6]; S.C. osmotic mini-pump 30 mg/kg/day (bis-mesylate salt)", "value": "> 1", "unit": "µM"},
      {"measurement": "cytotoxicity", "setting": "THP-1", "value": "not cytotoxic"},
      {"measurement": "IC20", "setting": "Yulac614 melanoma cells", "value": 500, "unit": "nM"},
      {"measurement": "cytotoxicity", "setting": "Jurkat", "value": "not cytotoxic"},
      {"measurement": "NHL cell lines tested that were sensitive to apilimod", "setting": "[7]; non-Hodgkin's Lymphoma cell lines", "value": "over 50%"},
      {"measurement": "cell lines identified as sensitive to apilimod-induced cytotoxicity", "setting": "[7]; of 122 human cancer cell lines", "value": 35, "unit": "cell lines"},
      {"measurement": "pIC50", "setting": "[8]", "value": 6.93},
      {"measurement": "cytotoxicity", "setting": "U937", "value": "not cytotoxic"},
      {"measurement": "autophagy (autophagic vacuoles)", "setting": "H4 neuroglioma cell line", "value": "induced autophagy in a dose-dependent manner"},
      {"measurement": "IC20", "setting": "SUDHL-4 cells", "value": 10, "unit": "nM"},
      {"measurement": "pIC50", "setting": "(TSC2−/−, p53−/−) MEF", "value": 7.54},
      {"measurement": "cytotoxicity", "setting": "[9]", "value": "not cytotoxic"},
      {"measurement": "cytotoxicity", "setting": "HELA", "value": "not cytotoxic"},
      {"measurement": "apilimod concentration at which vacuole formation in cells was observed", "setting": "cancer cell line; as low as", "value": 20, "unit": "nM"},
      {"measurement": "vacuolization", "setting": "cancer cell line; live cells, 500 nM, 24 h", "value": "induces vacuolization"},
      {"measurement": "pIC50", "setting": "MEF-EV (TSC2−/− MEF)", "value": 7.71},
      {"measurement": "pIC50", "setting": "ELT3-EV", "value": 7.86}
    ]}
  ]
}
